Source: patent US8575201B2 (Boehringer Ingelheim International GmbH, priority 2010, dated 2013)

What was measured:
[1] = target: recombinant human FLAP protein (Homo sapiens (Human), UniProt P20292); test: FLAP binding assay (Scintillation Proximity Assay, displacement of [125I]L-691,831); details: read-out: FLAP SPA IC50
Experimental: Assessment of Biological Properties 1. Binding Assay: Compounds are assessed for the ability to bind to FLAP in a binding assay that measures compound-specific displacement of an iodinated (^125I) FLAP inhibitor via a Scintillation Proximity Assay format (adapted from S. Charleson et al., Mol. Pharmacol., 1992, 41, 873-879). […] The cells are lysed with a Dounce homogenizer and the material is centrifuged at 10,000×g for 10 minutes. The supernatant is then collected and centrifuged at 100,000×g for 60 minutes. To prepare membrane protein for an assay, an aliquot of the 100,000×g pellet is resuspended in 1 ml of buffer A, Dounce homogenized, and finally subjected to polytron mixing (30 seconds). […] Mol. Pharmacol., 41, 873-879, 1992) and finally 50 μl of the bead/protein mixture. (final concentrations: beads, 200 μg/well; protein, 5 μg/well; […] The plates are shaken for 2 h before reading on a Microbeta plate reader.

[2] = tested on: synthesis of LTB4 in human whole blood; test: Human whole blood LTB4 production inhibition assay; type: cell-based; details: calcimycin stimulated, read-out: hWB LTB4 IC50
Experimental: Compounds are additionally tested in a human whole blood assay to determine their ability to inhibit the synthesis of LTB4 in a cellular system. Compounds are combined with heparinized human whole blood and incubated for 15 minutes at 37° C. Calcimycin (20 μM final, prepared in phosphate-buffered saline, pH 7.4) is then added and the mixture is incubated for another 30 minutes at 37° C. The samples are centrifuged for 5 min at low speed (1500×g) and the plasma layer is removed. Plasma LTB4 concentrations are then measured using an antibody-based homogenous time-resolved fluorescence method (CisBio, Bedford, Mass.).

Chain of recombinant human FLAP protein (P20292 whole entry): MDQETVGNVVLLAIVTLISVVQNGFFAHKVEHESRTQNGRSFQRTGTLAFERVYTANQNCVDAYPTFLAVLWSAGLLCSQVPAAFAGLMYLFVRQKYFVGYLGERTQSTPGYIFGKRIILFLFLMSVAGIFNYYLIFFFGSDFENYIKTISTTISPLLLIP

| Structure (SMILES) | IC50 [1] | IC50 [2] |
| --- | --- | --- |
| CC(C)(O)CNc1ccc(-c2nc(C3(c4ccc(-c5cnc(N)nc5)nc4)CCC3)no2)cn1 [Example 12, 1-{[5-(3-{1-[6-(2-aminopyrimidin-5-yl)pyridin-3-yl]cyclobutyl}-1,2,4-oxadiazol-5-yl)pyridin-2-yl]amino}-2-methylpropan-2-ol] | 2.1 nM | 140 nM |
| Nc1ncc(-c2ccc(C3(c4noc(-c5c[nH]nn5)n4)CCC3)cn2)cn1 [Example 14, 5-(5-{1-[5-(1H-1,2,3-triazol-4-yl)-1,2,4-oxadiazol-3-yl]cyclobutyl}pyridin-2-yl)pyrimidin-2-amine] | 140 nM | > 5000 nM |
| CN(C)c1nc(C2(c3ccc(-c4cnc(N)nc4)nc3)CCC2)no1 [Example 15, 5-(5-{1-[5-(dimethylamino)-1,2,4-oxadiazol-3-yl]cyclobutyl}pyridin-2-yl)pyrimidin-2-amine] | 280 nM | 2600 nM |
| Nc1ncc(-c2ccc(C3(c4noc(-c5ccc(NCC6(O)CC6)nc5)n4)CCC3)cn2)cn1 [Example 18, 1-({[5-(3-{1-[6-(2-aminopyrimidin-5-yl)pyridin-3-yl]cyclobutyl}-1,2,4-oxadiazol-5-yl)pyridin-2-yl]amino}methyl)cyclo-propanol] | 1.8 nM | 95 nM |
| Cn1cc(-c2nc(C3(c4ccc(-c5cnc(N)nc5)nc4)CCC3)no2)c(C(F)(F)F)n1 [Example 20, 5-[5-(1-{5-[1-methyl-3-(trifluoromethyl)-1H-pyrazol-4-yl]-1,2,4-oxadiazol-3-yl}cyclobutyl)pyridin-2-yl]pyrimidin-2-amine] | 9.2 nM | 530 nM |
| CC(C)(CO)Nc1ccc(-c2nc(C3(c4ccc(-c5cnc(N)nc5)nc4)CCC3)no2)cn1 [Example 21, 2-{[5-(3-{1-[6-(2-aminopyrimidin-5-yl)pyridin-3-yl]cyclobutyl}-1,2,4-oxadiazol-5-yl)pyridin-2-yl]amino}-2-methylpropan-1-ol] | 2.6 nM | 250 nM |
| CC(CO)n1cc(-c2nc(C3(c4ccc(-c5cnc(N)nc5)nc4)CCC3)no2)cn1 (centres unmarked) [Example 29, 2-[4-(3-{1-[6-(2-aminopyrimidin-5-yl)pyridin-3-yl]cyclobutyl}-1,2,4-oxadiazol-5-yl)-1H-pyrazol-1-yl]propan-1-ol] | 35 nM | 320 nM |
| CC(C)(CO)n1cc(-c2nc(C3(c4ccc(-c5cnc(N)nc5)nc4)CCC3)no2)cn1 [Example 30, 2-[4-(3-{1-[6-(2-aminopyrimidin-5-yl)pyridin-3-yl]cyclobutyl}-1,2,4-oxadiazol-5-yl)-1H-pyrazol-1-yl]-2-methylpropan-1-ol] | 33 nM | 400 nM |
| Nc1ncc(-c2ccc(C3(c4noc(-c5ccc(NC(CO)CO)nc5)n4)CCC3)cn2)cn1 [Example 33, 2-{[5-(3-{1-[6-(2-aminopyrimidin-5-yl)pyridin-3-yl]cyclobutyl}-1,2,4-oxadiazol-5-yl)pyridin-2-yl]amino}propane-1,3-diol] | 2.2 nM | 2600 nM |
| CN(C)C(=O)[C@@H]1CCCN1c1ccc(-c2nc(C3(c4ccc(-c5cnc(N)nc5)nc4)CCC3)no2)cn1 [Example 34, 1-[5-(3-{1-[6-(2-aminopyrimidin-5-yl)pyridin-3-yl]cyclobutyl}-1,2,4-oxadiazol-5-yl)pyridin-2-yl]-N,N-dimethyl-L-prolinamide] | 40 nM | 1800 nM |
| Nc1ncc(-c2ccc(C3(c4noc(-c5ccc(N6CCC[C@H]6C(=O)O)nc5)n4)CCC3)cn2)cn1 [Example 35, 1-[5-(3-{1-[6-(2-aminopyrimidin-5-yl)pyridin-3-yl]cyclobutyl}-1,2,4-oxadiazol-5-yl)pyridin-2-yl]-L-proline] | 43 nM | > 5000 nM |
| COC(=O)[C@@H]1CCCN1c1ccc(-c2nc(C3(c4ccc(-c5cnc(N)nc5)nc4)CCC3)no2)cn1 [Example 36, methyl 1-[5-(3-{1-[6-(2-aminopyrimidin-5-yl)pyridin-3-yl]cyclobutyl}-1,2,4-oxadiazol-5-yl)pyridin-2-yl]-L-prolinate] | 5.9 nM | 1400 nM |
| COC(=O)[C@H]1CNCCN1c1ccc(-c2nc(C3(c4ccc(-c5cnc(N)nc5)nc4)CCC3)no2)cn1 [Example 38, methyl (2R)-1-[5-(3-{1-[6-(2-aminopyrimidin-5-yl)pyridin-3-yl]cyclobutyl}-1,2,4-oxadiazol-5-yl)pyridin-2-yl]piperazine-2-carboxylate] | 3.2 nM | 75 nM |
| COC(=O)[C@H]1CN(c2ccc(-c3nc(C4(c5ccc(-c6cnc(N)nc6)nc5)CCC4)no3)cn2)CCN1 [Example 40, methyl (2R)-4-[5-(3-{1-[6-(2-aminopyrimidin-5-yl)pyridin-3-yl]cyclobutyl}-1,2,4-oxadiazol-5-yl)pyridin-2-yl]piperazine-2-carboxylate] | 3.3 nM | 92 nM |
| Nc1ncc(-c2ccc(C3(c4noc(-c5ccc(N6CCN[C@H](C(=O)O)C6)nc5)n4)CCC3)cn2)cn1 [Example 41, (2S)-4-[5-(3-{1-[6-(2-aminopyrimidin-5-yl)pyridin-3-yl]cyclobutyl}-1,2,4-oxadiazol-5-yl)pyridin-2-yl]piperazine-2-carboxylic acid] | 7.7 nM | > 5000 nM |

Results, then the compound that gave them:

| IC50 [1] | IC50 [2] | Structure (SMILES) |
| --- | --- | --- |
| 3.9 nM | 170 nM | CCOC(=O)CNc1ccc(-c2nc(C3(c4ccc(-c5cnc(N)nc5)nc4)CCC3)no2)cn1 [Example 13, ethyl N-[5-(3-{1-[6-(2-aminopyrimidin-5-yl)pyridin-3-yl]cyclobutyl}-1,2,4-oxadiazol-5-yl)pyridin-2-yl]glycinate] |
| 11 nM | 2200 nM | Nc1ncc(-c2ccc(C3(c4noc(-c5ccc(NCC(=O)O)nc5)n4)CCC3)cn2)cn1 [Example 16, N-[5-(3-{1-[6-(2-aminopyrimidin-5-yl)pyridin-3-yl]cyclobutyl}-1,2,4-oxadiazol-5-yl)pyridin-2-yl]glycine] |
| 8.7 nM | > 5000 nM | Nc1ncc(-c2ccc(C3(c4noc(-c5ccc(S(N)(=O)=O)cc5)n4)CCC3)cn2)cn1 [Example 17, 4-(3-{1-[6-(2-aminopyrimidin-5-yl)pyridin-3-yl]cyclobutyl}-1,2,4-oxadiazol-5-yl)benzenesulfonamide] |
| 58 nM | > 5000 nM | Nc1ncc(-c2ccc(C3(c4noc(-c5cccc(S(N)(=O)=O)c5)n4)CCC3)cn2)cn1 [Example 19, 3-(3-{1-[6-(2-aminopyrimidin-5-yl)pyridin-3-yl]cyclobutyl}-1,2,4-oxadiazol-5-yl)benzenesulfonamide] |
| 2.5 nM | 140 nM | Nc1ncc(-c2ccc(C3(c4noc(-c5ccc(OCCO)nc5)n4)CCC3)cn2)cn1 [Example 22, 2-{[5-(3-{1-[6-(2-aminopyrimidin-5-yl)pyridin-3-yl]cyclobutyl}-1,2,4-oxadiazol-5-yl)pyridin-2-yl]oxy}ethanol] |
| 26 nM | 430 nM | Nc1ncc(-c2ccc(C3(c4noc(-c5cscn5)n4)CCC3)cn2)cn1 [Example 23, 5-(5-{1-[5-(1,3-thiazol-4-yl)-1,2,4-oxadiazol-3-yl]cyclobutyl}pyridin-2-yl)pyrimidin-2-amine] |
| 110 nM | 1000 nM | Nc1ncc(-c2ccc(C3(c4noc(-c5cocn5)n4)CCC3)cn2)cn1 [Example 24, 5-(5-{1-[5-(1,3-oxazol-4-yl)-1,2,4-oxadiazol-3-yl]cyclobutyl}pyridin-2-yl)pyrimidin-2-amine] |
| 4 nM | 46 nM | Nc1ncc(-c2ccc(C3(c4noc(-c5cnn6cccnc56)n4)CCC3)cn2)cn1 [Example 25, 5-(5-{1-[5-(pyrazolo[1,5-a]pyrimidin-3-yl)-1,2,4-oxadiazol-3-yl]cyclobutyl}pyridin-2-yl)pyrimidin-2-amine] |
| 110 nM | 730 nM | Cn1cc(-c2nc(C3(c4ccc(-c5cnc(N)nc5)nc4)CCC3)no2)ccc1=O [Example 26, 5-(3-{1-[6-(2-aminopyrimidin-5-yl)pyridin-3-yl]cyclobutyl}-1,2,4-oxadiazol-5-yl)-1-methylpyridin-2(1H)-one] |
| 12.4 nM | 420 nM | Nc1ncc(-c2ccc(C3(c4noc(-c5ccc6nccn6c5)n4)CCC3)cn2)cn1 [Example 27, 5-(5-{1-[5-(imidazo[1,2-a]pyridin-6-yl)-1,2,4-oxadiazol-3-yl]cyclobutyl}pyridin-2-yl)pyrimidin-2-amine] |
| 1.9 nM | 300 nM | Nc1ncc(-c2ccc(C3(c4noc(-c5ccc(-n6ccnc6)nc5)n4)CCC3)cn2)cn1 [Example 31, 5-[5-(1-{5-[6-(1H-imidazol-1-yl)pyridin-3-yl]-1,2,4-oxadiazol-3-yl}cyclobutyl)pyridin-2-yl]pyrimidin-2-amine] |
| 2.9 nM | 140 nM | Nc1ncc(-c2ccc(C3(c4noc(-c5ccc(O)cc5)n4)CCC3)cn2)cn1 [Example 32, 4-(3-{1-[6-(2-aminopyrimidin-5-yl)pyridin-3-yl]cyclobutyl}-1,2,4-oxadiazol-5-yl)phenol] |
| 110 nM | 790 nM | Cn1cnnc1-c1nc(C2(c3ccc(-c4cnc(N)nc4)nc3)CCC2)no1 [Example 37, 5-(5-{1-[5-(4-methyl-4H-1,2,4-triazol-3-yl)-1,2,4-oxadiazol-3-yl]cyclobutyl}pyridin-2-yl)pyrimidin-2-amine] |
